Measured values as given in BindingDB's records for patent US12404295 (Idorsia Pharmaceuticals, 2025).

Target: Galectin-3 (Homo sapiens, UniProt P17931)
Experiment: Competitive Binding Assay
Description: The inhibitory activity of compounds is determined in competitive binding assays. This spectrophotometric assay measures the binding of biotinylated human Gal-3 (hGal-3) or human Gal-1 (hGal-1), respectively, to a microplate-adsorbed glycoprotein, asialofetuin (ASF).Briefly, compounds are serially diluted in DMSO (working dilutions). […] Finally, 25 μL/well of ABTS substrate is added.

Sequence of Galectin-3 (P17931 whole entry): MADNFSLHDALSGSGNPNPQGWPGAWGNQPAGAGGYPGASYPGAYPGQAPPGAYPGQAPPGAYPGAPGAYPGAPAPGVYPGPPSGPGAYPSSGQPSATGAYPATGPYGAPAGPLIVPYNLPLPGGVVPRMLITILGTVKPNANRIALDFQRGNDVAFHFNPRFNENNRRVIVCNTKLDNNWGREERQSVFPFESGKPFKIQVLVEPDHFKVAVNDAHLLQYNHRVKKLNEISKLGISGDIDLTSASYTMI

OC[C@H]1O[C@@H](S[C@@H](c2ccccc2C2CC2)C2(O)CCC(F)(F)CC2)[C@H](O)[C@@H](n2cc(-c3cc(F)c(F)c(F)c3)nn2)[C@H]1O [US12404295, Example 2.44.106S.*]
IC50: 0.93 µM

Cc1ccccc1[C@@H](S[C@@H]1O[C@H](CO)[C@H](O)[C@H](n2cc(-c3cc(F)c(F)c(F)c3)nn2)[C@H]1O)[C@@]1(O)CCOC(C)(C)C1 [US12404295, Example 2.43.112RR.]
IC50: 1.5 µM

Cc1nc([C@H](S[C@@H]2O[C@H](CO)[C@H](O)[C@H](n3cc(-c4cc(F)c(F)c(F)c4)nn3)[C@H]2O)C(C)(C)O)c(C)s1 [US12404295, Example 2.31.123S.]
IC50: 4.7 µM

CC1(C)CC(O)([C@H](S[C@@H]2O[C@H](CO)[C@H](O)[C@H](n3cc(-c4cc(F)c(F)c(F)c4)nn3)[C@H]2O)c2ccccc2C(F)(F)F)CC(C)(C)O1 [US12404295, Example 2.42.102R.]
IC50: 0.09 µM

CO[C@@H]1[C@@H](n2cc(-c3cc(F)c(F)c(F)c3)nn2)[C@@H](O)[C@@H](CO)O[C@H]1S[C@H](c1ncccc1C)[C@]1(O)CCOC(C)(C)C1 [US12404295, Example 2.43.126RS.I.]
IC50: 0.04 µM

OC[C@H]1O[C@@H](S[C@H](c2ccccc2C2CC2)C2(O)CCC(F)(F)CC2)[C@H](O)[C@@H](n2cc(-c3cc(F)c(F)c(F)c3)nn2)[C@H]1O [US12404295, Example 2.44.106R.*]
IC50: 0.06 µM

CC1(C)C[C@](O)([C@@H](S[C@@H]2O[C@H](CO)[C@H](O)[C@H](n3cc(-c4cc(F)c(F)c(F)c4)nn3)[C@H]2O)c2ccccc2C(F)(F)F)CCO1 [US12404295, Example 2.43.102SS.]
IC50: 3.92 µM

Cc1nc(C(S[C@@H]2O[C@H](CO)[C@H](O)[C@H](n3cc(-c4cc(F)c(F)c(F)c4)nn3)[C@H]2O)C(C)(C)O)c(C)s1 (stereo partly specified) [US12404295, Example 2.31.123.]
IC50: 0.55 µM

CC1(C)CC(O)(C(S[C@@H]2O[C@H](CO)[C@H](O)[C@H](n3cc(-c4cc(F)c(F)c(F)c4)nn3)[C@H]2O)c2ccccc2C(F)(F)F)CC(C)(C)O1 (stereo partly specified) [US12404295, Example 2.42.102.]
IC50: 0.38 µM

OC[C@H]1O[C@@H](S[C@H](c2cccc(Cl)c2Cl)C2(O)CCC(F)(F)CC2)[C@H](O)[C@@H](n2cc(-c3cc(F)c(F)c(F)c3)nn2)[C@H]1O [US12404295, Example 2.44.113R.]
IC50: 0.8 µM

CC1(C)C[C@@](O)([C@H](S[C@@H]2O[C@H](CO)[C@H](O)[C@H](n3cc(-c4cc(F)c(F)c(F)c4)nn3)[C@H]2O)c2ccccc2C(F)(F)F)CCO1 [US12404295, Example 2.43.102RR.]
IC50: 0.29 µM

OC[C@H]1O[C@@H](S[C@@H](c2cccc(Cl)c2Cl)C2(O)CCC(F)(F)CC2)[C@H](O)[C@@H](n2cc(-c3cc(F)c(F)c(F)c3)nn2)[C@H]1O [US12404295, Example 2.44.113S.]
IC50: 57.5 µM

CC1(C)CC(O)([C@@H](S[C@@H]2O[C@H](CO)[C@H](O)[C@H](n3cc(-c4cc(F)c(F)c(F)c4)nn3)[C@H]2O)c2ccccc2C(F)(F)F)CC(C)(C)O1 [US12404295, Example 2.42.102S.]
IC50: 7.82 µM

OC[C@H]1O[C@@H](SC(c2ncccc2C(F)(F)F)C2(O)CC(F)(F)C2)[C@H](O)[C@@H](n2cc(-c3cc(F)c(F)c(F)c3)nn2)[C@H]1O (stereo partly specified) [US12404295, Example 2.35.125.]
IC50: 0.32 µM

CC1(C)C[C@](O)([C@H](S[C@@H]2O[C@H](CO)[C@H](O)[C@H](n3cc(-c4cc(F)c(F)c(F)c4)nn3)[C@H]2O)c2ccccc2C(F)(F)F)CCO1 [US12404295, Example 2.43.102RS.]
IC50: 0.04 µM

CO[C@@H]1[C@@H](n2cc(-c3cc(F)c(F)c(F)c3)nn2)[C@@H](O)[C@@H](CO)O[C@H]1SC(c1ncccc1C)C1(O)CCOC(C)(C)C1 (stereo partly specified) [US12404295, Example 2.43.126.I.]
IC50: 0.16 µM

Cc1ccccc1[C@@H](S[C@@H]1O[C@H](CO)[C@H](O)[C@H](n2cc(-c3cc(F)c(F)c(F)c3)nn2)[C@H]1O)[C@]1(O)CCOC(C)(C)C1 [US12404295, Example 2.43.112RS.]
IC50: 0.13 µM

Cc1ccccc1[C@H](S[C@@H]1O[C@H](CO)[C@H](O)[C@H](n2cc(-c3cc(F)c(F)c(F)c3)nn2)[C@H]1O)[C@@]1(O)CCOC(C)(C)C1 [US12404295, Example 2.43.112SR.]
IC50: 4.9 µM

OC[C@H]1O[C@@H](SC(c2cccc(Cl)c2Cl)C2(O)CCC(F)(F)CC2)[C@H](O)[C@@H](n2cc(-c3cc(F)c(F)c(F)c3)nn2)[C@H]1O (stereo partly specified) [US12404295, Example 2.44.113.]
IC50: 0.36 µM

OC[C@H]1O[C@@H](S[C@@H](c2ncccc2C(F)(F)F)C2(O)CC(F)(F)C2)[C@H](O)[C@@H](n2cc(-c3cc(F)c(F)c(F)c3)nn2)[C@H]1O [US12404295, Example 2.35.125S.]
IC50: 3 µM

CC1(C)CC(O)(C(S[C@@H]2O[C@H](CO)[C@H](O)[C@H](n3cc(-c4cc(F)c(F)c(F)c4)nn3)[C@H]2O)c2ccccc2C(F)(F)F)CCO1 (stereo partly specified) [US12404295, Example 2.43.102.]
IC50: 0.12 µM

Cc1nc([C@@H](S[C@@H]2O[C@H](CO)[C@H](O)[C@H](n3cc(-c4cc(F)c(F)c(F)c4)nn3)[C@H]2O)C(C)(C)O)c(C)s1 [US12404295, Example 2.31.123R.]
IC50: 0.28 µM

CC(C)Cc1c(C(S[C@@H]2O[C@H](CO)[C@H](O)[C@H](n3cc(-c4cc(F)c(F)c(F)c4)nn3)[C@H]2O)C2(O)CCC(F)(F)CC2)noc1C1CC1 (stereo partly specified) [US12404295, Example 2.44.131.]
IC50: 0.11 µM

OC[C@H]1O[C@@H](S[C@H](c2ncccc2C(F)(F)F)C2(O)CC(F)(F)C2)[C@H](O)[C@@H](n2cc(-c3cc(F)c(F)c(F)c3)nn2)[C@H]1O [US12404295, Example 2.35.125R.]
IC50: 0.1 µM

CC1(C)C[C@@](O)([C@@H](S[C@@H]2O[C@H](CO)[C@H](O)[C@H](n3cc(-c4cc(F)c(F)c(F)c4)nn3)[C@H]2O)c2ccccc2C(F)(F)F)CCO1 [US12404295, Example 2.43.102SR.]
IC50: 3.9 µM

Cc1ccccc1[C@H](S[C@@H]1O[C@H](CO)[C@H](O)[C@H](n2cc(-c3cc(F)c(F)c(F)c3)nn2)[C@H]1O)[C@]1(O)CCOC(C)(C)C1 [US12404295, Example 2.43.112SS.]
IC50: 7.3 µM
